Assay results published in patent publication US20240024403A1, “Compositions and Methods for Managing Weight” (Unigen, Inc., priority 2012, published 2024).

Experiment: High fat diet induced obesity (DIO) mouse model
Format: in vivo, C57CL/6J mice
Conditions: for Weight (total body weight) / Total Weight: in g (unit assumed)
Method: C57CL/6J mice aged 4-6 weeks (Korea Research Institute of Bioscience & Biotechnology, Ohchang, Korea) were housed in Polycarbonate cages (five mice per cage) in a room with a 12 hr:12 hr light-dark cycle and an ambient temperature of 24° C. All the mice were fed a commercial chow diet for 1 week after arrival in the animal facility. Mice were then divided into normal and obesity groups and fed with normal diet (ND) and high fat diets (HFD) respectively. The HFD group was divided into multiple treatment groups: a high fat diet vehicle group (HFD), an orlistat (purchased as OTC drug Alli®) positive control treatment group (ORI, 40 mg/kg of animal weight, 2 times/day) and optionally a sibutramine positive control treatment group (10 mg/kg, 1 time/day). The HFD contained 340 g of fat/kg of HFD (310 g lard plus 30 g soybean oil; Harlan Laboratories, USA). The HFD was formulated to provide 60% of the total energy generated by the diet from fat by replacing carbohydrate energy with lard and soybean oil, whereas the normal diet (ND) group was fed a diet providing only 18% of the total diet energy from fat(Harlan Laboratories, USA).
Body weight was measured once each week and feed intake was measured twice per week. At the end of the experimental period, following a 12 hr. fasting period, the animals were anesthetized with ether, and blood was drawn from the abdominal vein. Liver and kidney and adipose tissues (epididymal, retroperitoneal, perirenal adipose tissues) were removed from each animal, rinsed with physiological saline, and weighed. Serum concentrations of glucose, total cholesterol, triglycerides, and LDL-cholesterol were determined using automatic analyzer (INTEGRA 400, Roche, Germany). Statistical significance of test results was measured using the Student's t-test.

[1] = DIO mice blood biochemistry, SIB 10 mg/kg, ORI 40 mg/kg, Mutamba extract 32 (G1) 1000 mg/kg, mean
[2] = DIO mice blood biochemistry, SIB 10 mg/kg, ORI 40 mg/kg, Mutamba extract 33-2 G1 1000 mg/kg, mean
[3] = DIO mice liver pathology score, SIB 10 mg/kg, ORI 40 mg/kg, Mutamba extract 32 (G1) 1000 mg/kg, mean
[4] = DIO mice, ORI 40 mg/kg, seven week study, mean
[5] = DIO mice, biochemistry parameters, G3, G4 1000 mg/kg oral two times per day
[6] = DIO mice, blood at end of study, ORI 40 mg/kg, mean
[7] = DIO mice, blood at end of study, ORI 40 mg/kg, G1 300 mg/kg (Morus:Magnolia 2:1)
[8] = DIO mice, blood at end of study, ORI 40 mg/kg, G1 1200 mg/kg (Morus:Yerba Mate 1:5)
[9] = DIO mice, liver pathology, ORI 40 mg/kg, mean
[10] = DIO mice, oral, seven weeks, combination (2:5) 700 mg/kg, ORI 40 mg/kg, group mean
[11] = DIO mice, oral, week 1, ORI 40 mg/kg, G1 700 mg/kg (Morus:Rosemary 2:5)
[12] = DIO mice, oral, week 1, ORI 40 mg/kg, G1 1200 mg/kg (Morus:Yerba Mate 1:5)
[13] = DIO mice, oral, week 2, ORI 40 mg/kg, G1 700 mg/kg (Morus:Rosemary 2:5)
[14] = DIO mice, oral, week 2, ORI 40 mg/kg, G1 1200 mg/kg (Morus:Yerba Mate 1:5)

## CCCCCCCCCCC[C@@H](C[C@@H]1OC(=O)[C@H]1CCCCCC)OC(=O)[C@H](CC(C)C)NC=O [ORI, orlistat]
[1]
  ALT: 40.42 U/L
  AST: 67.96 U/L
  HDL-C: 78.52 mg/dL
  LDL-C: 6.78 mg/dL
  T-chol: 184.40 mg/dL
  TG: 143.60 mg/dL
[2]
  LDL-C: 7.42 mg/dL
  T-chol: 182.40 mg/dL
  TG: 41.20 mg/dL
[3]
  Hepatocellular ballooning (0-2): 0.60
  Lobular Inflammation (0-3): 1.60
  Steatosis (0-3): 1.20
DIO mice liver pathology, sum of scores, SIB 10 mg/kg, ORI 40 mg/kg, Mutamba extract 32 (G1) 1000 mg/kg, mean
  NASH (sum): 3.40
[4]
  Food Intake: 3.195 g/day
  Weight Gain: 0.000 g/day
DIO mice, ORI 40 mg/kg, seven week study, body weight gain/food intake
  Food Efficiency Ratio (FER): 0.000
DIO mice, ORI 40 mg/kg, week 1, mean
  Weight Gain: −5.43
DIO mice, ORI 40 mg/kg, week 2, mean
  Weight Gain: −6.69
DIO mice, ORI 40 mg/kg, week 3, mean
  Weight Gain: −5.27
DIO mice, ORI 40 mg/kg, week 4, mean
  Weight Gain: −3.47
DIO mice, ORI 40 mg/kg, week 5, mean
  Weight Gain: −2.34
DIO mice, ORI 40 mg/kg, week 6, mean
  Weight Gain: −1.08
DIO mice, ORI 40 mg/kg, week 7, mean
  Weight Gain: 0.02
[5]
  ALP: 186.51 U/L
  ALT: 35.12 U/L
  AST: 62.03 U/L
  Glu: 267.22 mg/dL
  HDL-C: 74.22 mg/dL
  LDL-C: 7.56 mg/dL
  T-chol: 175.44 mg/dL
  TG: 46.78 mg/dL
  TP: 4.89 g/dL
[6]
  ALT: 21.83 U/L
  AST: 65.65 U/L
  TG: 27.83 mg/dL
[7]
  F-Glu (fasting glucose): 225.50 mg/dL
  LDL-C: 3.30 mg/dL
  T-Chol (total cholesterol): 134.00 mg/dL
  Triglyceride: 62.50 mg/dL
[8]
  F-Glu (fasting glucose): 225.50 mg/dL
  LDL-C: 3.30 mg/dL
  T-Chol (total cholesterol): 134.00 mg/dL
  Triglyceride: 62.50 mg/dL
[9]
  Hepatocellular ballooning (0-2): 0.67
  Lobular Inflammation (0-3): 1.33
  NASH (sum): 2.67
  Steatosis (0-3): 0.67
DIO mice, oral, seven weeks, combination 700 mg/kg, ORI 40 mg/kg, group mean
  Perirenal Fat: 0.43
DIO mice, oral, seven weeks, combination (2:5) 700 mg/kg, ORI 40 mg/kg, FER = body weight gain/food intake
  Food Efficiency Ratio (FER): 0.005
[10]
  Body Weight Gain: 0.012 g/day
  Food Intake: 2.711 g/day
DIO mice, oral, week 0, ORI 40 mg/kg, G1 700 mg/kg (Morus:Rosemary 2:5)
  Weight (total body weight): 42.39
DIO mice, oral, week 0, ORI 40 mg/kg, G1 1200 mg/kg (Morus:Yerba Mate 1:5)
  Total Weight: 38.40
DIO mice, oral, week 1, ORI 40 mg/kg, G1 300 mg/kg (Morus:Magnolia 2:1)
  Body Weight Gain: −3.20
[11]
  Body Weight Gain: −3.56
  Weight (total body weight): 38.83
[12]
  Weight Gain: −3.20
  Total Weight: 35.20
DIO mice, oral, week 2, ORI 40 mg/kg, G1 300 mg/kg (Morus:Magnolia 2:1)
  Body Weight Gain: −4.88
[13]
  Body Weight Gain: −5.75
  Weight (total body weight): 36.64
[14]
  Weight Gain: −4.88
  Total Weight: 33.58
DIO mice, oral, week 3, ORI 40 mg/kg, G1 300 mg/kg (Morus:Magnolia 2:1)
  Body Weight Gain: −3.34
